Target: human F508del-CFTR (Homo sapiens, UniProt P13569, DEL508-508)
Assay: F508del-CFTR cell surface expression (corrector activity), DiscoveRx ß-galactosidase complementation chemiluminescence assay in recombinant U2OS cell line;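 further: U2OS cells co-expressing ProLink-tagged F508del-CFTR and a membrane-anchored enzyme acceptor, where more surface CFTR restores β-galactosidase activity measured by chemiluminescence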
Settings: for EC50: EC50, F508del-CFTR cell surface expression, U2OS cells, 16h compound incubation, geomean values; for Emax: U2OS, in relation to Emax of corrector lumacaftor (=100%), arithmetic mean values
Procedure: The method measures the effect of over-night compound incubation on F508del-CFTR cell surface expression in a recombinant U2OS cell line (DiscoveRx, #93-0987C3). This cell line is engineered to co-express (i) human F508del-CFTR tagged with a Prolink (PK=short ß-galactosidase fragment) and (ii) the remainder of the ß-galactosidase enzyme (Enzyme Acceptor; EA) localized to the plasma membrane. Incubation with compounds that increase PK-tagged F508del-CFTR at the plasma membrane will lead to complementation of the EA fragment to form a functional ß-galactosidase enzyme which is quantified by a chemiluminescence reaction.
The cells are incubated for 5h in the incubator before the addition of 5 μl/well of compound dilution series (5× working stocks in full medium). […] The cells are co-incubated with the compounds for 16h in the incubator at 37° C., 5% CO2. The next day, the cell plates are incubated for 2h at RT in the dark. […] Concentration-response curves are generated using compound-intrinsic maximal efficacy as upper plateau, and from these CRCs compound-intrinsic EC50 values are determined.
The calculated EC50 values may fluctuate depending on the daily assay performance. […] EC50 values from several measurements are given as geomean values. The calculated Emax values may fluctuate depending on the daily assay performance. […] Emax values from several measurements are given as arithmetic mean values.

human F508del-CFTR, sequence (P13569 with tags, fused parts or gaps DEL508-508): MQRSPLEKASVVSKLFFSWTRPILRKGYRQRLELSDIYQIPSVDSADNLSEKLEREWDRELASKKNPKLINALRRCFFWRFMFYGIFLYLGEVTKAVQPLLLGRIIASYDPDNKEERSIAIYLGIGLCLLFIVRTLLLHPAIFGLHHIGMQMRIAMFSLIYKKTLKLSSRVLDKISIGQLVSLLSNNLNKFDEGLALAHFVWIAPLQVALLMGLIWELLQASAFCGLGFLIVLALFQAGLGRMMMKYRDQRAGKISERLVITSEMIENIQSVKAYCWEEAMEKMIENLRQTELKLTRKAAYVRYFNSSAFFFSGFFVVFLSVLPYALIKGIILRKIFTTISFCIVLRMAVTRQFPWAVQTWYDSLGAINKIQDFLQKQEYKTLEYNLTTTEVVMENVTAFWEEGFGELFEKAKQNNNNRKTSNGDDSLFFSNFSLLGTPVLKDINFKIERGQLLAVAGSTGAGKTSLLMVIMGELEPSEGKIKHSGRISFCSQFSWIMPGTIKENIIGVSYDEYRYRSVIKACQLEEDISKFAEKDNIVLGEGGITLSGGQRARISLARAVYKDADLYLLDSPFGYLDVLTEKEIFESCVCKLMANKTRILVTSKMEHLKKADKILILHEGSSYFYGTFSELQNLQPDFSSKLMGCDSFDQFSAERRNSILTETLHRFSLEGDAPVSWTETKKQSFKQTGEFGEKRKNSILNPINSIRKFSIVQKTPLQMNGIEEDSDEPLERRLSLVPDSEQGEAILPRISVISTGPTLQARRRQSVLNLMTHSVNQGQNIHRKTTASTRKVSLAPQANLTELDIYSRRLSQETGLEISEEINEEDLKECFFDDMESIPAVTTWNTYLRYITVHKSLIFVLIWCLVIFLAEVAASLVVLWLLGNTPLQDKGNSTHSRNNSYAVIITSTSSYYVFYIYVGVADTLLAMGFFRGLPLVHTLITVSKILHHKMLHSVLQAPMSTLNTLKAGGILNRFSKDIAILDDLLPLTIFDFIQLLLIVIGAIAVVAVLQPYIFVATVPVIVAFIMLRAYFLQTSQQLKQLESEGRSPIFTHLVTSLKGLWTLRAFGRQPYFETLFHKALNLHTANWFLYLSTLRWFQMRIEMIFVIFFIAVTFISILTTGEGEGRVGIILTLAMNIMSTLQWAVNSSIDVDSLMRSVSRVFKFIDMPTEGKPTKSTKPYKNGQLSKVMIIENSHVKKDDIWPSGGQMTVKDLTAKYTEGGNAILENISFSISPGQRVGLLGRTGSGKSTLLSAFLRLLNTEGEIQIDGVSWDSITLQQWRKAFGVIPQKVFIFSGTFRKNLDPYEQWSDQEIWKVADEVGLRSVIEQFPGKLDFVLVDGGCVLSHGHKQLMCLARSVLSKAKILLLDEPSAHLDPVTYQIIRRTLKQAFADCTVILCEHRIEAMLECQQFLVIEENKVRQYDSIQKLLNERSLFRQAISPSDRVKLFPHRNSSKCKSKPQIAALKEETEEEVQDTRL

Row | Structure (SMILES) | EC50 [µM] | Emax [%]
1 | CC(C)C[C@H]1C(=O)N(C)C2(CCC2)C(=O)N[C@H](Cc2ccccc2)COc2cnc3ccc(F)cc3c2C(=O)N[C@H](C(=O)NCCc2cc(C3CC3)no2)CC(=O)N1C [Example 689, (3'S,7'S,13′R)-13′-Benzyl-N-(2-(3-cyclopropylisoxazol-5-yl)ethyl)-20′-fluoro-7′-isobutyl-6′,9′-dimethyl-1′,5′,8′,11′-tetraoxo-2′,3′,4′,5′,6′,7′,8′,9′,11′,12′,13′,14′-dodecahydro-1′H-spiro[cyclobutane-1,10′-[1]oxa[4,7,10,14]tetraazacycloheptadecino[17,16-c]quinoline]-3′-carboxamide] | 0.245 | 390
2 | Cc1cc(CCNC(=O)[C@@H]2CC(=O)N(C)[C@@H](CC(C)C)C(=O)N(C)C3(CCC3)C(=O)N[C@H](Cc3ccccc3)COc3cnc4ccc(F)cc4c3C(=O)N2)on1 [Example 690, (3′S,7′S,13′R)-13′-benzyl-20′-fluoro-7′-isobutyl-6′,9′-dimethyl-N-(2-(3-methylisoxazol-5-yl)ethyl)-1′,5′,8′,11′-tetraoxo-2′,3′,4′,5′,6′,7′,8′,9′,11′,12′,13′,14′-dodecahydro-1′H-spiro[cyclobutane-1,10′-[1]oxa[4,7,10,14]tetraazacycloheptadecino[17,16-c]quinoline]-3′-carboxamide] | 0.478 | 401
3 | CC(C)C[C@H]1C(=O)N(C)C2(CCC2)C(=O)N[C@H](Cc2ccccc2)COc2cnc3ccc(F)cc3c2C(=O)N[C@H](C(=O)NCCc2noc(C3CC3)n2)CC(=O)N1C [Example 691, (3′S,7′S,13′R)-13′-benzyl-N-(2-(5-cyclopropyl-1,2,4-oxadiazol-3-yl)ethyl)-20′-fluoro-7′-isobutyl-6′,9′-dimethyl-1′,5′,8′,11′-tetraoxo-2′,3′,4′,5′,6′,7′,8′,9′,11′,12′,13′,14′-dodecahydro-1′H-spiro[cyclobutane-1,10′-[1]oxa[4,7,10,14]tetraazacycloheptadecino[17,16-c]quinoline]-3′-carboxamide] | 0.201 | 364
4 | CC(C)C[C@H]1C(=O)N(C)C2(CCC2)C(=O)N[C@H](Cc2ccccc2)COc2cnc3ccc(F)cc3c2C(=O)N[C@H](C(=O)NCCc2nc(C3CC3)no2)CC(=O)N1C [Example 692, (3′S,7′S,13′R)-13′-benzyl-N-(2-(3-cyclopropyl-1,2,4-oxadiazol-5-yl)ethyl)-20′-fluoro-7′-isobutyl-6′,9′-dimethyl-1′,5′,8′,11′-tetraoxo-2′,3′,4′,5′,6′,7′,8′,9′,11′,12′,13′,14′-dodecahydro-1′H-spiro[cyclobutane-1,10′-[1]oxa[4,7,10,14]tetraazacycloheptadecino[17,16-c]quinoline]-3′-carboxamide] | 0.104 | 301
5 | CC(C)C[C@H]1C(=O)N(C)[C@H](CC2CCCC2)C(=O)N[C@H](Cc2ccccc2)COc2cnc3ccc(F)cc3c2C(=O)N[C@H](C(=O)NCCc2noc(C3CC3)n2)CC(=O)N1C [Example 693, (3S,7S,10R,13R)-13-benzyl-10-(cyclopentylmethyl)-N-(2-(5-cyclopropyl-1,2,4-oxadiazol-3-yl)ethyl)-20-fluoro-7-isobutyl-6,9-dimethyl-1,5,8,11-tetraoxo-1,2,3,4,5,6,7,8,9,10,11,12,13,14-tetradecahydro-[1]oxa[4,7,10,14]tetraazacycloheptadecino[17,16-c]quinoline-3-carboxamide] | 0.04 | 401
6 | CC(C)C[C@H]1C(=O)N(C)[C@@H](CC2CCCC2)C(=O)N[C@H](Cc2ccccc2)COc2cnc3ccc(F)cc3c2C(=O)N[C@H](C(=O)NCCc2noc(C3CC3)n2)CC(=O)N1C [Example 694, (3S,7S,10S,13R)-13-benzyl-10-(cyclopentylmethyl)-N-(2-(5-cyclopropyl-1,2,4-oxadiazol-3-yl)ethyl)-20-fluoro-7-isobutyl-6,9-dimethyl-1,5,8,11-tetraoxo-1,2,3,4,5,6,7,8,9,10,11,12,13,14-tetradecahydro-[1]oxa[4,7,10,14]tetraazacycloheptadecino[17,16-c]quinoline-3-carboxamide] | 0.241 | 213
7 | Cc1cc(CCNC(=O)[C@@H]2CC(=O)N(C)[C@@H](CC(C)C)C(=O)N(C)[C@@H](Cc3cccc4ccccc34)C(=O)N[C@H](Cc3ccccc3)COc3cnc4ccccc4c3C(=O)N2)on1 [Example 695, (3S,7S,10S,13R)-13-benzyl-7-isobutyl-6,9-dimethyl-N-(2-(3-methylisoxazol-5-yl)ethyl)-10-(naphthalen-1-ylmethyl)-1,5,8,11-tetraoxo-1,2,3,4,5,6,7,8,9,10,11,12,13,14-tetradecahydro-[1]oxa[4,7,10,14]tetraazacycloheptadecino[17,16-c]quinoline-3-carboxamide] | 0.201 | 237
8 | CC(C)C[C@H]1C(=O)N(C)[C@H](CC2CCCCC2)C(=O)N[C@H](Cc2ccccc2)COc2cnc3ccc(F)cc3c2C(=O)N[C@H](C(=O)NCCc2nc(C3CC3)no2)CC(=O)N1C [Example 696, (3S,7S,10R,13R)-13-benzyl-10-(cyclohexylmethyl)-N-(2-(3-cyclopropyl-1,2,4-oxadiazol-5-yl)ethyl)-20-fluoro-7-isobutyl-6,9-dimethyl-1,5,8,11-tetraoxo-1,2,3,4,5,6,7,8,9,10,11,12,13,14-tetradecahydro-[1]oxa[4,7,10,14]tetraazacycloheptadecino[17,16-c]quinoline-3-carboxamide] | 0.014 | 252
9 | CC(C)C[C@H]1C(=O)N(C)[C@H](CC2CCCCC2)C(=O)N[C@H](Cc2ccccc2)COc2cnc3ccc(F)cc3c2C(=O)N[C@H](C(=O)NCCc2cc(C3CC3)no2)CC(=O)N1C [Example 697, (3S,7S,10R,13R)-13-benzyl-10-(cyclohexylmethyl)-N-(2-(3-cyclopropylisoxazol-5-yl)ethyl)-20-fluoro-7-isobutyl-6,9-dimethyl-1,5,8,11-tetraoxo-1,2,3,4,5,6,7,8,9,10,11,12,13,14-tetradecahydro-[1]oxa[4,7,10,14]tetraazacycloheptadecino[17,16-c]quinoline-3-carboxamide] | 0.027 | 306
10 | Cc1cc(CCNC(=O)[C@@H]2CC(=O)N(C)[C@@H](CC(C)C)C(=O)N(C)[C@H](Cc3cccc4ccccc34)C(=O)N[C@H](Cc3ccccc3)COc3cnc4ccccc4c3C(=O)N2)on1 [Example 698, (3S,7S,10R,13R)-13-benzyl-7-isobutyl-6,9-dimethyl-N-(2-(3-methylisoxazol-5-yl)ethyl)-10-(naphthalen-1-ylmethyl)-1,5,8,11-tetraoxo-1,2,3,4,5,6,7,8,9,10,11,12,13,14-tetradecahydro-[1]oxa[4,7,10,14]tetraazacycloheptadecino[17,16-c]quinoline-3-carboxamide] | 0.199 | 313
11 | Cc1cc(CCNC(=O)[C@@H]2CC(=O)N(C)[C@@H](CC(C)C)C(=O)N(C)[C@H](CC(F)F)C(=O)N[C@H](Cc3ccccc3)COc3cnc4ccccc4c3C(=O)N2)on1 [Example 699, (3S,7S,10R,13R)-13-benzyl-10-(2,2-difluoroethyl)-7-isobutyl-6,9-dimethyl-N-(2-(3-methylisoxazol-5-yl)ethyl)-1,5,8,11-tetraoxo-1,2,3,4,5,6,7,8,9,10,11,12,13,14-tetradecahydro-[1]oxa[4,7,10,14]tetraazacycloheptadecino[17,16-c]quinoline-3-carboxamide] | 0.299 | 338
12 | CC(C)C[C@H]1C(=O)N(CC2COc3ccccc3C2)CC(=O)N[C@H](Cc2ccccc2)COc2ccc3ccccc3c2C(=O)N[C@H](C(=O)NCCc2ccc3c(c2)OCO3)CC(=O)N1C (stereo partly drawn) [Example 700, (3S,7S,13R)—N-(2-(Benzo[d][1,3]dioxol-5-yl)ethyl)-13-benzyl-9-(((S)-chroman-3-yl)methyl)-7-isobutyl-6-methyl-1,5,8,11-tetraoxo-1,2,3,4,5,6,7,8,9,10,11,12,13,14-tetradecahydronaphtho[1,2-p][1]oxa[4,7,10,14]tetraazacycloheptadecine-3-carboxamide] | 0.188 | 186
13 | COc1cccc(CCNC(=O)[C@@H]2CC(=O)N(C)[C@@H](CC(C)C)C(=O)N(CCC3CCCCC3)CC(=O)N[C@H](Cc3ccccn3)COc3ccc4ccccc4c3C(=O)N2)c1 [Example 701, (3S,7S,13R)-9-(2-cyclohexylethyl)-7-isobutyl-N-(3-methoxyphenethyl)-6-methyl-1,5,8,11-tetraoxo-13-(pyridin-2-ylmethyl)-1,2,3,4,5,6,7,8,9,10,11,12,13,14-tetradecahydronaphtho[1,2-p][1]oxa[4,7,10,14]tetraazacycloheptadecine-3-carboxamide] | 0.165 | 268
14 | Cc1cc(CCNC(=O)[C@@H]2CC(=O)N(C)[C@@H](CC(C)C)C(=O)N(CC3Cc4ccccc4O3)CC(=O)N[C@H](Cc3ccccc3)COc3cnc4ccccc4c3C(=O)N2)on1 (stereo partly drawn) [Example 702, (3S,7S,13R)-13-benzyl-9-((2,3-dihydrobenzofuran-2-yl)methyl)-7-isobutyl-6-methyl-N-(2-(3-methylisoxazol-5-yl)ethyl)-1,5,8,11-tetraoxo-1,2,3,4,5,6,7,8,9,10,11,12,13,14-tetradecahydro-[1]oxa[4,7,10,14]tetraazacycloheptadecino[17,16-c]quinoline-3-carboxamide] | 0.295 | 162
15 | Cc1cc(CCNC(=O)[C@@H]2CC(=O)N(C)[C@@H](CC(C)C)C(=O)N(CC[C@@H]3CCCCO3)CC(=O)N[C@H](Cc3csc4ccccc34)COc3cnc4ccccc4c3C(=O)N2)on1 [Example 703, (3S,7S,13R)-13-(benzo[b]thiophen-3-ylmethyl)-7-isobutyl-6-methyl-N-(2-(3-methylisoxazol-5-yl)ethyl)-1,5,8,11-tetraoxo-9-(2-((S)-tetrahydro-2H-pyran-2-yl)ethyl)-1,2,3,4,5,6,7,8,9,10,11,12,13,14-tetradecahydro-[1]oxa[4,7,10,14]tetraazacycloheptadecino[17,16-c]quinoline-3-carboxamide] | 0.316 | 167

From patent US20240208992A1, “MACROCYCLES AS CFTR MODULATORS” (Idorsia Pharmaceuticals Ltd, priority 2021, published 2024)
